According to paper PMC5516028, “Molecular tools for GABAA receptors: High affinity ligands for β1-containing subtypes” (Scientific Reports, 2017):
Where two headings read alike, the source gives them in different places.

Experiments:
α2β3γ2 GABAA receptors = molecular target: T1, α2β3γ2 GABAA receptors (Rattus norvegicus, UniProt P23576+P63079); design: method as in earlier work; conditions: published data, ref 1 (Supplementary References), read-out: Approximate EC50; cited from earlier work
T1 construct: expressed in transfected cells; host or cells: Xenopus laevis oocytes, mRNA injected
T1 sequence (P23576 29-451): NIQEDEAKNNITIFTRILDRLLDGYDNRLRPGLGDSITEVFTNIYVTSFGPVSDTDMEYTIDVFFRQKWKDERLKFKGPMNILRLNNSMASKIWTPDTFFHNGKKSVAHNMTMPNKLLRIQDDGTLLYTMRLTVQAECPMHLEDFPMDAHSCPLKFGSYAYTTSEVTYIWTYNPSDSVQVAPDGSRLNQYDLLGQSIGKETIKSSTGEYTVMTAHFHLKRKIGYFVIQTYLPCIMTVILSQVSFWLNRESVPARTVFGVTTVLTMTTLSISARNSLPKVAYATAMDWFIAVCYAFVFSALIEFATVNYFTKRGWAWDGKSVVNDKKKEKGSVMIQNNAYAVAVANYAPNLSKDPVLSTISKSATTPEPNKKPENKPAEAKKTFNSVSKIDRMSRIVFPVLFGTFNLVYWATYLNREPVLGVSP
T1 sequence (P63079 26-473): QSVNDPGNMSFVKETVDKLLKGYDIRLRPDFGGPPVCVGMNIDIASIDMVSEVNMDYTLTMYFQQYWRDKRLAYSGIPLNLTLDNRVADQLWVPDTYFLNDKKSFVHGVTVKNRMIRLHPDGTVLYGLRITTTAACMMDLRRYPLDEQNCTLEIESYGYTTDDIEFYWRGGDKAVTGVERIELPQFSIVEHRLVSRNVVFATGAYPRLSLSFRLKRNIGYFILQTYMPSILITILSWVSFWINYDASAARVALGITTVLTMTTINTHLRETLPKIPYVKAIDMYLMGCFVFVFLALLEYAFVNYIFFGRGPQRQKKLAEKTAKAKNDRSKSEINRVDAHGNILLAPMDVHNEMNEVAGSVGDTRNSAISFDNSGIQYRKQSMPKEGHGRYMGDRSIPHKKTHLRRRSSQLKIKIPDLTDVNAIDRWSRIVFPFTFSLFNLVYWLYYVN
T1 sequence (P18508 39-466 partner): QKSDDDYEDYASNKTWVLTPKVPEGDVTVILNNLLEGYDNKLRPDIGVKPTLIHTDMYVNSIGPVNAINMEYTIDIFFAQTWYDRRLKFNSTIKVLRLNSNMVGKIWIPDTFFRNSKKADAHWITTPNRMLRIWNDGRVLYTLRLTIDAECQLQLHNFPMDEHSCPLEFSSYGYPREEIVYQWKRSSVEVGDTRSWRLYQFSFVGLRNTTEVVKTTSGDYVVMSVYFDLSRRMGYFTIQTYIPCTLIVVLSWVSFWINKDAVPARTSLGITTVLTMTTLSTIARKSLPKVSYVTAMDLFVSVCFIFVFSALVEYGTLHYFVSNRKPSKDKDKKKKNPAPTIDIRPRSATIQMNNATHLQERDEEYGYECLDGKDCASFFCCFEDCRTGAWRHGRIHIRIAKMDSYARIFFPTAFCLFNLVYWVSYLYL

α6β3γ2 GABAA receptors = molecular target: T2, α6β3γ2 GABAA receptors (Rattus norvegicus, UniProt P30191+P63079); design: method as in earlier work; conditions: published data, ref 1 (Supplementary References), read-out: Approximate EC50; cited from earlier work
T2 construct: expressed in transfected cells; host or cells: Xenopus laevis oocytes, mRNA injected
T2 sequence (P30191 20-453): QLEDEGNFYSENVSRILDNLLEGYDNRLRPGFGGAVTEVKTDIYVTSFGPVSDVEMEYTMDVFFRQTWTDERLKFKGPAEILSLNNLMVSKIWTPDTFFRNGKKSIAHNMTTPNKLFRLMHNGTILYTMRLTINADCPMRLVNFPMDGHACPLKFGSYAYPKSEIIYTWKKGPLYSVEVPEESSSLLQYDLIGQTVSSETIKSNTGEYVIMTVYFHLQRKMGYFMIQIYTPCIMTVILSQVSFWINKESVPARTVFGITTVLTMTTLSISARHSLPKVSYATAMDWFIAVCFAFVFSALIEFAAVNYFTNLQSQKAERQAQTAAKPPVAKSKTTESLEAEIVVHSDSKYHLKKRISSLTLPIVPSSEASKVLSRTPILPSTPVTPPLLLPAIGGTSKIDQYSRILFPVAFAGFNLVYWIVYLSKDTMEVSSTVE
T2 sequence (P63079 26-473): as the sequence (P63079 26-473) above
T2 sequence (P18508 39-466 partner): as the sequence (P18508 39-466 partner) above

α1β2γ2 GABAA receptors = molecular target: α1β2γ2 GABAA receptors; design: method as in earlier work; conditions: published data, ref 1 (Supplementary References), read-out: Approximate EC50; cited from earlier work
α1β3γ2 GABAA receptors = molecular target: T3, α1β3γ2 GABAA receptors (Rattus norvegicus, UniProt P62813+P63079); design: method as in earlier work; conditions: published data, ref 1 (Supplementary References), read-out: Approximate EC50; cited from earlier work
T3 construct: expressed in transfected cells; host or cells: Xenopus laevis oocytes, mRNA injected
T3 sequence (P62813 28-455): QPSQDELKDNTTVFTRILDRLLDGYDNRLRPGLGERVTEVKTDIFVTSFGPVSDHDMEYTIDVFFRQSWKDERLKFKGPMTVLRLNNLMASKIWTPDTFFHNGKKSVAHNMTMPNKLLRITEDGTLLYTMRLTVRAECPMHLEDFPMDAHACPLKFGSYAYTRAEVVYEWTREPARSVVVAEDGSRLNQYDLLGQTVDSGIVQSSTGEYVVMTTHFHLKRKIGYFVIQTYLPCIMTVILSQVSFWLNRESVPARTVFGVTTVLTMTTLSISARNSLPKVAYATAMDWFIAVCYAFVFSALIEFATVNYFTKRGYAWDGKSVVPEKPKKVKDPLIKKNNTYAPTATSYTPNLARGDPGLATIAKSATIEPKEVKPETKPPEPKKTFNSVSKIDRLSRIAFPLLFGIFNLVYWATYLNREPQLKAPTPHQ
T3 sequence (P63079 26-473): as the sequence (P63079 26-473) above
T3 sequence (P18508 39-466 partner): as the sequence (P18508 39-466 partner) above

α2β1γ2 GABAA receptors = molecular target: α2β1γ2 GABAA receptors; design: method as in earlier work; conditions: published data, ref 1 (Supplementary References), read-out: Approximate EC50; cited from earlier work
α1β1δ GABAA receptors = molecular target: T4, α1β1δ GABAA receptors (Rattus norvegicus, UniProt P15431+P62813); assay: Two electrode voltage clamp in Xenopus laevis oocytes, α1β1δ; assay type: cell-based; conditions: α1β1δ
T4 construct: expressed in transfected cells; host or cells: Xenopus laevis oocytes, mRNA injected
T4 sequence (P62813 28-455): as the sequence (P62813 28-455) above
T4 sequence (P15431 26-474): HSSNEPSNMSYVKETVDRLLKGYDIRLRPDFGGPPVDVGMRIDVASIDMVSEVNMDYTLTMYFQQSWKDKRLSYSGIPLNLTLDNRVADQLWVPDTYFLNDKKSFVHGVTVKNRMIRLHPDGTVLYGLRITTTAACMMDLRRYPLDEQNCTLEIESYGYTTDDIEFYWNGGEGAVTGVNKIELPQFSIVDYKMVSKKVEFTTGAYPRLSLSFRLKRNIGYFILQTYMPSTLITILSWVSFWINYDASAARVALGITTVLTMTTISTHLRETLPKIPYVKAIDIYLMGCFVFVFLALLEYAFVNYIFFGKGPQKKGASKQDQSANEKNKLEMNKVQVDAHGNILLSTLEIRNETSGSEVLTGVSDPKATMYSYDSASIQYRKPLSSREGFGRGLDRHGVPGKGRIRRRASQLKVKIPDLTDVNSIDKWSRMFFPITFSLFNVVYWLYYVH
T4 sequence (P18506 17-449 partner limits assumed): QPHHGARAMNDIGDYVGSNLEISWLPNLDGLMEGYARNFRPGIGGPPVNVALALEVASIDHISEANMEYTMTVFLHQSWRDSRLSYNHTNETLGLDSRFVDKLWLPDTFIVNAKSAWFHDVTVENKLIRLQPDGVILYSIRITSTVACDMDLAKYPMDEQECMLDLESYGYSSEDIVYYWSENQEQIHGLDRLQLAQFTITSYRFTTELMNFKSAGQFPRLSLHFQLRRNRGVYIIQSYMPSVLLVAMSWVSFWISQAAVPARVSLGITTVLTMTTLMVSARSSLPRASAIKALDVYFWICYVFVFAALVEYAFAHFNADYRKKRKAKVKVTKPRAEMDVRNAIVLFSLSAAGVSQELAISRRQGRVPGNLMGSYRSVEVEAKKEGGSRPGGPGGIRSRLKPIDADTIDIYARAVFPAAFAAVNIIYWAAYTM
Description: cDNA’s of rat GABAA receptor subunits α1, α4, β1, β2, β3 and γ2S were cloned as described. cDNAs of the rat subunits α2, α3 and α5 were gifts from P. Malherbe, that of α6 and γ1 were gifts of P. Seeburg and that of δ was a gift of C. Czajkowski. The mutants were constructed using the Q5 Site-Directed Mutagenesis Kit (New England Biolabs) following manufacturer’s instruction. We used the wild-type rat β3-pCI vector as template and the primers […] and […] resulting in a substitution of amino acid N41 (AAC) to R (AGG). We used the wild-type rat β1-pCI vector as template and the primers […] and […] resulting in a substitution of amino acid R41 (CGG) to N (AAC). The mutated subunits were confirmed by sequencing.
In vitro transcription of mRNA was based on the cDNA expression vectors encoding for rat GABAA receptor subunits α1–6, β1-3, γ1,2, δ and the two β mutants (β1R41N and β3N41R)[40]. After linearizing the cDNA vectors with appropriate restriction endonucleases, the cDNA was purified and concentrated with the DNA Clean and Contentrator ^TM Kit (Zymoresearch, Catalog No. D4005). Capped transcripts of the purified cDNA were produced using the mMESSAGE mMACHINE® T7 transcription kit (Ambion, TX, USA) and polyadenylated using the Ambion PolyA tailing kit (Ambion). After transcription and polyadenylation the RNA was purified with the MEGAclear ^TM Kit (Ambion, Catalog No. AM1908). The final RNA concentration was measured on NanoDrop® ND-1000 and finally diluted and stored in diethylpyrocarbonate-treated water at −80 °C. For the microinjection, the RNA of αβ receptor combinations was mixed at 1:1 ratio (which leads to αβ receptors that consist of predominantly 3 beta and 2 alpha subunits[27]), for αkβlγm (k = 1–3, l = 1, 3, m = 1, 2) receptors at 1:1:5 ratio, for αkβ3γ2 (k = 4–6) and αkβlδ (k = 1, 4 and 6, l = 1, 3) receptor combinations at 3:1:5 ratio.
Mature female Xenopus laevis (Nasco, WI) were anesthetized in a bath of ice-cold 0.17% Tricain (Ethyl-m-aminobenzoate, Sigma, MO) before decapitation in full accordance with all rules of the Austrian animal protection law (see http://www.ris.bka.gv.at/Dokumente/BgblAuth/BGBLA_2012_I_114/BGBLA_2012_I_114.pdf) and the Austrian animal experiment by-laws (see https://www.ris.bka.gv.at/Dokumente/BgblAuth/BGBLA_2012_II_522/BGBLA_2012_II_522.pdf) which implement the European Directive 2010/63/EU (see http://eur-lex.europa.eu/LexUriServ/LexUriServ.do?uri=OJ:L:2010:276:0033:0079:en:PDF) into the Austrian law (all information accessed on July 27, 2016). The frog’s ovaries were transferred to ND96 medium (96 mM NaCl, 2 mM KCl, 1 mM MgCl2, 5 mM HEPES; pH 7.5). Stage 5–6 oocytes with the follicle cell layer around them were roughly dissected with forceps into packages of 10–15 cells and washed in Ca^2+-free ND96 medium. Cells were then digested with collagenase (type IA, Sigma, NO, 1 mg/mL ND96) at 18 °C shaking at 30 rpm for 30–60 minutes and gently defolliculated with the aid of a glass pipette with appropriate tip diameter and a platinum loop. Defolliculated cells were stored at 18 °C for at least 6 hours in ND96 solution containing penicillin G (10000 IU/100 mL) and streptomycin (10 mg/100 mL) in order to preselect and exclude damaged cells from further treatment. Healthy defolliculated oocytes were injected with an aqueous solution of mRNA. A total of 4.5 ng of mRNA per oocyte was injected with a Nanoject II (Drummond). After injection of mRNA, oocytes were incubated at 18 °C (ND96 + antibiotic) for 2–3 days for αβ receptors and for 3–4 days for αβγ or αβδ receptors before recording. When cells were measured at later time points, oocytes were stored at +4 °C instead of 18 °C.
For electrophysiological recordings, oocytes were placed on a nylon-grid in a bath of Ca^2+-containing NDE solution medium [96 mM NaCl, 5 mM HEPES-NaOH (pH 7.5), 2 mM KCl, 1 mM MgCl2, 1.8 mM CaCl2].

SMILES: COc1ccc(-n2nc3c4cc(Cl)ccc4[nH]cc-3c2=O)cc1 [Compound 1, 8-Chloro-2-(4-methoxyphenyl)-2H-pyrazolo[4,3-c]quinolin-3(5H)-one]
- EC50 (α2β3γ2 GABAA receptors): ~2200 nM
- EC50 (α6β3γ2 GABAA receptors): ~3.3 µM
- EC50 (α1β2γ2 GABAA receptors): ~1900 nM
- EC50 (α1β3γ2 GABAA receptors): ~1800 nM
- EC50 (α2β1γ2 GABAA receptors): ~50 nM
- activity at 0.01 µM (α1β1δ GABAA receptors; read-out: efficacy, % of control current (GABA EC3-5 = 100%), 10 nM): 126 ± 5.6%
- activity at 0.03 µM (α1β1δ GABAA receptors; read-out: efficacy, % of control current (GABA EC3-5 = 100%), 30 nM): 192 ± 21.1%
- activity at 10 µM (α1β1δ GABAA receptors; read-out: efficacy, % of control current (GABA EC3-5 = 100%), 10 µM): 294 ± 11.1%
- Hill slope (nH) (α1β1δ GABAA receptors): 0.8±0.2
- EC50 (α1β1δ GABAA receptors; co-applied with GABA EC3-5, read-out: EC50): 70 nM
- EC50 (α1β1δ GABAA receptors; log of EC50, sign as printed, read-out: LogEC50 (converted)): 100 nM
